From ChEMBL document CHEMBL3217568, “trans-Stilbenoids: potent and selective inhibitors for human cytochrome P450 1B1” (Medchemcomm, 2011) come the findings set out here.

One assay concerns the target T1, Cytochrome P450 1A2 (Homo sapiens, UniProt P05177).
T1 sequence (P05177 whole entry): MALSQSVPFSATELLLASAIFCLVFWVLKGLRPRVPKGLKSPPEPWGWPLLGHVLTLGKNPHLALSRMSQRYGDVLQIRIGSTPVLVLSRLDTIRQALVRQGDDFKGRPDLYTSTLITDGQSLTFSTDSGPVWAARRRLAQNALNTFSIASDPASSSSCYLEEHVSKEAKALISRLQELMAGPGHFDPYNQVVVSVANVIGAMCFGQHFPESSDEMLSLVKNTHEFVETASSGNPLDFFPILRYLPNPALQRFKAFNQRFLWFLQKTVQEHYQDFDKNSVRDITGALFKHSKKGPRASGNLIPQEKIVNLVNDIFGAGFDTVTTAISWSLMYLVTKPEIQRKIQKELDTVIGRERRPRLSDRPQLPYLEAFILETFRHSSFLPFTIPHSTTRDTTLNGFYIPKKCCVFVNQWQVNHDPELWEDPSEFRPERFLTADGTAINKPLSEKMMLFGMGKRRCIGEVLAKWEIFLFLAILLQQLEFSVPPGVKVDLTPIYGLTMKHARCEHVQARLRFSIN
The experiment in a line: Inhibition of human CYP1A2 expressed in Escherichia coli assessed as changes in ethoxyresorufin O-deethylation activity after 3 mins by spectrofluorometer analysis. Type of assay: ADME.

The species named for assay [1] is Homo sapiens. The experiment in a line: Selectivity ratio of IC50 for human CYP1A1 to IC50 for human CYP1B1.
The target in assay [2] is T2, Cytochrome P450 1B1 (Homo sapiens, UniProt Q16678).
T2 sequence (Q16678 whole entry): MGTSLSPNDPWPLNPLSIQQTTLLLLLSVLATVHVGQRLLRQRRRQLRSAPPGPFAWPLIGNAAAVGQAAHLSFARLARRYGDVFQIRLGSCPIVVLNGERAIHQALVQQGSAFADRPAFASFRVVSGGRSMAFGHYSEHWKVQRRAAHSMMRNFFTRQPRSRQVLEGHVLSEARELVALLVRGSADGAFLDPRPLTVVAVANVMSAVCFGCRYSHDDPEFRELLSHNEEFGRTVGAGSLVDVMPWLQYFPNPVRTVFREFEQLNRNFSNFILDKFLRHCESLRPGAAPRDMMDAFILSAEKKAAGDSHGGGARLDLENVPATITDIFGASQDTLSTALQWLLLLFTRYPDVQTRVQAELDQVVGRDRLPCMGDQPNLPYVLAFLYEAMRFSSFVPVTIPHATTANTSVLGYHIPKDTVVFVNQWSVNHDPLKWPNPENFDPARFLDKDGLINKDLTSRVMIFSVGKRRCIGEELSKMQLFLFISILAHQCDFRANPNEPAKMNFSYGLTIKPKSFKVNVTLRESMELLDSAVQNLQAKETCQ
The experiment in a line: Inhibition of human CYP1B1 expressed in Escherichia coli assessed as changes in ethoxyresorufin O-deethylation activity after 3 mins by spectrofluorometer analysis.

Assay [3] concerns the target T3, Cytochrome P450 1A1 (Homo sapiens, UniProt P04798).
T3 sequence (P04798 whole entry): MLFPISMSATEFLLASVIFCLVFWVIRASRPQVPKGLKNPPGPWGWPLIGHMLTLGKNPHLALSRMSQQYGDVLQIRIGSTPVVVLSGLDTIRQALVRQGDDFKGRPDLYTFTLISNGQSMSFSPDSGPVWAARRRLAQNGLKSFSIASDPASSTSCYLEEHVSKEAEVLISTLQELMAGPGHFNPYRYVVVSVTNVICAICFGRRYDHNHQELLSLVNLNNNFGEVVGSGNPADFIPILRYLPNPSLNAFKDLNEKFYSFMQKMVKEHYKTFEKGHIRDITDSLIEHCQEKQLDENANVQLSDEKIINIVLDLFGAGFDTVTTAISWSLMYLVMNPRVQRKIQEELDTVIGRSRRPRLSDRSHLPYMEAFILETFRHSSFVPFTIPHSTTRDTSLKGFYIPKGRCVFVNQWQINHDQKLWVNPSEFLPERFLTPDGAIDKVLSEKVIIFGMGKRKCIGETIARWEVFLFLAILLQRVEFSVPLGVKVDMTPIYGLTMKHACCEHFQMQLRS
The experiment in a line: Inhibition of human CYP1A1 expressed in Escherichia coli assessed as changes in ethoxyresorufin O-deethylation activity after 3 mins by spectrofluorometer analysis. The format is ADME.

The species entered for assay [4] is Homo sapiens. The experiment in a line: Selectivity ratio of IC50 for human CYP1A2 to IC50 for human CYP1B1.
The target of assay [5] is T2, Cytochrome P450 1B1. The experiment in a line: Inhibition of CYP1B1 (unknown origin).
The target in assay [6] is T3, Cytochrome P450 1A1. The experiment in a line: Inhibition of CYP1A1 (unknown origin). Type of assay: ADME.

In general, IC50 refers to the concentration at which inhibition is half-maximal. For the compound `COc1ccc(OC)c(/C=C/c2ccc(OC)cc2OC)c1`, the IC50 came out at 302 nM at Cytochrome P450 1A2, 3.51 nM at Cytochrome P450 1B1 [2] and 350 nM at Cytochrome P450 1A1 [3]. The Ratio IC50 in the assay filed under Homo sapiens [1] was 100; in the assay listed under Homo sapiens [4], 86.
For `COc1ccc(/C=C/c2ccc(OC)c(OC)c2)c(OC)c1`, in that order: 337 nM, 41.8 nM, 190 nM, 4.6 and 8.1.
What is called Ki is the dissociation constant of the complex between target and ligand, obtained from inhibition or displacement. High values mean a looser hold on the target, low ones a stronger hold on the target. On to `COc1cc(/C=C/c2ccc(O)cc2)cc(OC)c1` [PTEROSTILBENE], for which the values for the Ki on Cytochrome P450 1B1 [5] and on Cytochrome P450 1A1 [6] were 900 nM and 570 nM, respectively.
With `COc1ccc(/C=C/c2ccc(OC)cc2OC)cc1`, the IC50 on Cytochrome P450 1A2 is 1060 nM; on Cytochrome P450 1B1 [2] it was 57.5 nM; on Cytochrome P450 1A1 [3], 666 nM. For the same compound, the Ratio IC50 in the assay filed under Homo sapiens [1] is 12; in the assay filed under Homo sapiens [4], 18.
Taken in the same sequence, the figures for `COc1ccc(/C=C/c2cc(OC)c(OC)c(OC)c2)c(OC)c1` were 4690 nM, 71 nM, 301 nM, 4.2 and 66.
On to `COc1ccc(/C=C/c2ccccc2OC)c(OC)c1`, for which the IC50 at Cytochrome P450 1A2 is 792 nM; at Cytochrome P450 1B1 [2], 15.5 nM; on Cytochrome P450 1A1 [3] it was 336 nM. Further, the Ratio IC50 in the assay listed under Homo sapiens [1] was 22; in the assay filed under Homo sapiens [4] it was 51.
Taken in the same sequence, the figures for `COc1ccc(/C=C/c2ccccc2)c(OC)c1` were 326 nM, 25 nM, 493 nM, 20 and 13.
For the compound `COc1ccc(/C=C/c2cc(O)cc(O)c2)cc1` [RESVERATROL 4'-METHYL ETHER], the figures for the Ki at Cytochrome P450 1B1 [5] and at Cytochrome P450 1A1 [6] were 2100 nM and 160 nM, respectively.
As for `COc1ccc(/C=C/c2c(OC)ccc(OC)c2OC)c(OC)c1`, the IC50 is 1740 nM at Cytochrome P450 1A2, 3.3 nM at Cytochrome P450 1B1 [2] and 420 nM on Cytochrome P450 1A1 [3]. Also, the Ratio IC50 came out at 127 in the assay filed under Homo sapiens [1] and 526 in the assay listed under Homo sapiens [4].
Taken in the same sequence, the figures for `COc1cccc(/C=C/c2ccc(OC)cc2OC)c1` were 903 nM, 15.2 nM, 98.2 nM, 6.5 and 59.
For `COc1ccc(/C=C/c2ccc(OC)cc2OC)c(OC)c1`, in that order: 204 nM, 8.81 nM, 222 nM, 25 and 23.
For `COc1ccc(/C=C/c2c(OC)cccc2OC)c(OC)c1`, in that order: 170 nM, 1.77 nM, 350 nM, 194 and 95.
Take `COc1ccc(/C=C/c2cc(OC)c(OC)cc2OC)c(OC)c1`: the IC50 on Cytochrome P450 1A2 is 236 nM; at Cytochrome P450 1B1 [2] it was 5.46 nM; at Cytochrome P450 1A1 [3] it was 78.4 nM. For the same compound, the Ratio IC50 came to 14 in the assay filed under Homo sapiens [1] and 43 in the assay filed under Homo sapiens [4].
For `COc1ccc(/C=C/c2cccc(OC)c2OC)c(OC)c1`, in that order: 247 nM, 60.3 nM, 192 nM, 3.2 and 4.1.
For `COc1ccc(/C=C/c2c(OC)cc(OC)cc2OC)c(OC)c1`, in that order: 188 nM, 4.93 nM, 148 nM, 30 and 38.
Consider `COc1cc(O)cc(/C=C/c2ccc(O)cc2)c1`, for which the results for the Ki at Cytochrome P450 1B1 [5] and at Cytochrome P450 1A1 [6] were 900 nM and 120 nM, respectively.
